For 22 compounds, EC50 and IC50 results are on record in ChEMBL document CHEMBL4402608 (J Med Chem, 2020).

Holding throughout (format): cell-based
The target of assay [1] is D(3) dopamine receptor (Homo sapiens, UniProt P35462). In words: Agonist activity at human D3R expressed in CHOK1 cells assessed as induction of beta-arrestin recruitment measured after 90 mins by beta-galactosidase based PathHunter assay. Particulars: read-out: EC50; call rule not given here. On the technique in general: Activated receptors often draw arrestin, which recruitment assays turn into a signal.

Assay [2] concerns the target T1, D(2) dopamine receptor (Homo sapiens, UniProt P14416). In words: Agonist activity at human D2R expressed in CHOK1 cells assessed as induction of beta-arrestin recruitment measured after 90 mins by beta-galactosidase based PathHunter assay.
In assay [3] the target is T1, D(2) dopamine receptor. The assay is described as follows: Antagonist activity at human D2R expressed in CHOK1 cells assessed as inhibition of dopamine-induced beta-arrestin recruitment measured after 120 mins by beta-galactosidase based PathHunter assay.

SMILES strings stand for the structures.

As usually defined, the EC50 is the concentration that produces a half-maximal response. In general, IC50 refers to the midpoint of a concentration-inhibition curve. Consider `COc1ccc(OCCN2CCN(C(=O)c3ccc(OC)cc3)CC2C)cc1` (stereo unspecified), for which the EC50 is 4400 nM in assay [1] and “Not Active” in assay [2]. Moreover, in assay [3] (read-out: IC50), the IC50 is more than 100 µM.

`CCOc1ccc(OCCN2CCN(C(=O)c3cc4ccccc4[nH]3)CC2)cc1`: the figures for the EC50 in assay [1] and in assay [2] were more than 100000 nM and “Not Active”, respectively. For the same compound, the IC50 in assay [3] (read-out: IC50) is more than 100 µM.

`Cc1ccc(OCCN2CCN(C(=O)c3cc4ccccc4[nH]3)CC2)cc1Cl`: the half-maximal effective concentration (EC50) in assay [1] is 997 nM; in assay [2] it was “Not Active”. Further, in assay [3], the IC50 result is recorded as “Not Active”.

Turning to `COc1ccc(OCCN2CCN(C(=O)c3cc4ccccc4[nH]3)CC2)c(Cl)c1`, the EC50 in assay [1] is 41 nM; in assay [2] it was “Not Active”. The IC50 in assay [3] (read-out: IC50) was more than 10 µM.

`CSc1ccc(OCCN2CCN(C(=O)c3cc4ccccc4[nH]3)CC2)cc1`: the EC50 in assay [1] was 630 nM; in assay [2], “Not Active”. The IC50 in assay [3] (read-out: IC50) is more than 100 µM.

Consider `COc1cccc(OCCN2CCN(C(=O)c3cc4cc(OC)ccc4[nH]3)CC2)c1`, for which the EC50 in assay [1] stood at 284 nM; in assay [2] (read-out: EC50), 1700 nM. Besides, the IC50 entry in assay [3] is “Not Active”.

Consider `Cc1ccc(OCCN2CCN(C(=O)c3cc4ccccc4[nH]3)CC2)cc1`, for which the values for the EC50 in assay [1] and in assay [2] (read-out: EC50) were 151 nM and more than 50000 nM, respectively. Besides, in assay [3] (read-out: IC50), the 50% inhibitory concentration (IC50) is more than 100 µM.

As for `O=C(c1cc2ccccc2[nH]1)N1CCN(CCOc2ccc(OC(F)(F)F)cc2)CC1`, the EC50 in assay [1] is 3800 nM; in assay [2] (read-out: EC50), more than 100000 nM. Moreover, in assay [3] (read-out: IC50), the IC50 was more than 100 µM.

Turning to `COc1ccc(OCCN2CCN(C(=O)c3cc4ccccc4[nH]3)CC2)cc1OC`, the values for the EC50 in assay [1] and in assay [2] were 710 nM and “Not Active”, respectively. Moreover, in assay [3] (read-out: IC50), the half-maximal inhibitory concentration (IC50) is more than 50 µM.

As for `O=C(c1cc2ccccc2o1)N1CCN(CCOc2cccnc2)CC1`, the EC50 in assay [1] is 42 nM; in assay [2] (read-out: EC50), 1700 nM. In addition, in assay [3], the IC50 entry is recorded as “Not Active”.

As to `COc1ccc(C(=O)N2CCN(CCOc3cccnc3)CC2)c(C)c1`, the EC50 was determined as 116 nM in assay [1] and 4600 nM in assay [2] (read-out: EC50). In assay [3] (read-out: IC50), the IC50 is more than 100 µM.

`O=C(c1cc2ccccc2[nH]1)N1CCN(CCOc2ccccn2)CC1`: the EC50 is 3500 nM in assay [1] and “Not Active” in assay [2]. For the same compound, the IC50 in assay [3] (read-out: IC50) is more than 100 µM.

`O=C(c1ccc[nH]1)N1CCN(CCOc2cccnc2)CC1`: the values for the EC50 in assay [1] and in assay [2] (read-out: EC50) were 118 nM and 6100 nM, respectively. Besides, in assay [3] (read-out: IC50), the IC50 is more than 100 µM.

`O=C(c1cc2ccccc2[nH]1)N1CCN(CCOc2cccnc2)CC1`: the EC50 was determined as 7 nM in assay [1] and 570 nM in assay [2] (read-out: EC50). Moreover, the IC50 entry in assay [3] was “Not Active”.

Take `Cn1c(C(=O)N2CCN(CCOc3cccnc3)CC2)cc2ccccc21`: the half-maximal effective concentration (EC50) was 37.6 nM in assay [1] and 6200 nM in assay [2] (read-out: EC50). In addition, the IC50 result in assay [3] is given as “Not Active”.

As for `Cc1ccc2[nH]c(C(=O)N3CCN(CCOc4cccnc4)CC3)cc2c1`, the concentration giving a half-maximal response (EC50) is 13 nM in assay [1] and 1300 nM in assay [2] (read-out: EC50). In addition, the IC50 entry in assay [3] is on record as “Not Active”.

As to `COc1ccc(OCCN2CCN(C(C)=O)CC2)cc1`, the EC50 in assay [1] was 9700 nM; in assay [2] it was “Not Active”. The IC50 entry in assay [3] is on record as “Not Active”.

With `COc1cccc(OCCN2CCN(C(=O)c3cc4cccnc4[nH]3)CC2)c1`, the EC50 in assay [1] worked out at 50 nM; in assay [2] (read-out: EC50), 128 nM. For the same compound, in assay [3], the IC50 entry is reported as “Not Active”.

For the compound `O=C(c1cc2ccccc2[nH]1)N1CCN(CCOc2ccc(Cl)cc2)CC1`, the EC50 was 114 nM in assay [1] and “Not Active” in assay [2]. The half-maximal inhibitory concentration (IC50) in assay [3] (read-out: IC50) is more than 50 µM.

With `COc1ccc(OCCN2CCN(C(=O)C3CCCCC3)CC2)cc1`, the half-maximal effective concentration (EC50) in assay [1] is more than 50000 nM; in assay [2], “Not Active”. Besides, in assay [3] (read-out: IC50), the IC50 is more than 50 µM.

On to `O=C(c1cc2ccccc2[nH]1)N1CCN(CCOc2ccncc2)CC1`, for which the half-maximal effective concentration (EC50) in assay [1] is 472 nM; in assay [2], “Not Active”. In addition, the IC50 in assay [3] (read-out: IC50) is more than 100 µM.

With `O=C(c1cc2ncccc2[nH]1)N1CCN(CCOc2cccnc2)CC1`, the results for the EC50 in assay [1] and in assay [2] (read-out: EC50) were 200 nM and 3000 nM, respectively. Further, the half-inhibitory concentration (IC50) entry in assay [3] is given as “Not Active”.
